The record followed here is patent US7169785B2, “Methods and compositions of novel triazine compounds” (Reddy US Therapeutics, Inc., priority 2001, dated 2007).

The structures appear in SMILES notation.

The test system of test [1] is IL-6. In words: AGE (G-HSA)-induced inflammatory response determined by IL-6 ELISA in HAEC. Format: cell-based, human. Conditions: Homo sapiens; for activity at 10 µM: 24 h, Compds tested @ 10 uM; for IC50: IL6, unit inferred, read-out: IC50 (AGE stimulation of IL6). Here is the method: Human aortic endothelial cells (HAEC, Clonetics) were cultured according to manufacturer in growth medium (Clonetics): basal medium containing human epidermal growth factor, hydrocortisone, vascular endothelial growth factor, heparin binding growth factor-B, long R3-insulin-like growth factor-1, ascorbic acid, gentamicin/amphotericin and 5% FBS. These cell were allowed to reach at least 90% confluency before subjected to experimental treatments. […] Tumor necrosis factor α was from R&D Systems.
All treatments, compound-added and controls were carried out in serum free media containing 0.2% albumin. Media from all conditions were collected and used for IL-6 ELISA.
(§1) IL-6 ELISA was carried out using human IL-6 DuoSet ELISA development kit as described by manufacturer (R&D Systems). Mouse anti-human Il-6 was used as the capture antibody (2 ug/ml) and biotinylated goat anti-human IL-6 (200 ng/ml) was used as the detection antibody. Culture media were incubated with capture antibody (in 96 well) for 2 h at room temperature. Wells were washed three times with wash buffer (0.05% tween-20 in phosphate buffered saline (PBS) pH 7.4) followed by incubation with detection antibody for 2 h at room temperature. Following three washes wells were incubated with Streptavidin-HRP for 20 min. Color development was read at 450 nm in a Microplate reader.

Test [2] concerns IL-6. In words: TNF-α-induced IL-6 production determined by IL-6 ELISA in HAEC. Format: cell-based, human. Conditions: Homo sapiens, HAEC, IL6; for activity at 10 µM: 24 h, Compds tested @ 10 uM, read-out: % IL6 production compare to TNF stimulation of IL6 (100%). Here is the method:
Human aortic endothelial cells (HAEC, Clonetics) were cultured according to manufacturer in growth medium (Clonetics): basal medium containing human epidermal growth factor, hydrocortisone, vascular endothelial growth factor, heparin binding growth factor-B, long R3-insulin-like growth factor-1, ascorbic acid, gentamicin/amphotericin and 5% FBS. These cell were allowed to reach at least 90% confluency before subjected to experimental treatments. Glycated human serum albumin (G-HSA) was from US Biologicals. Tumor necrosis factor α was from R&D Systems.
[…] All treatments, compound-added and controls were carried out in serum free media containing 0.2% albumin. Media from all conditions were collected and used for IL-6 ELISA.
as §1
(In an ELISA, binding on a coated surface is turned into a signal by an enzyme label.)

Where [3] appears, read: IL6, read-out: % IL6 production compare to AGE stimulation of IL6 (100%).

Take `CCN1CCCC1CNc1nc(Nc2ccc(OC)c(F)c2)nc(N2CCN(c3ccccn3)CC2)n1` (centres unmarked) [Compound 73, N^2-[(1-ethyl-2-pyrrolidinyl)methyl]-N^4-(3-fluoro-4-methoxyphenyl)-N^6-[4-(2-pyridinyl)-1-piperazinyl]-1,3,5-triazine-2,4-diamine]: the activity at 10 µM in the test on IL-6 [1] (setting [3]) came to 20%; in the test on IL-6 [2], 1%. Also, the IC50 in the test with IL-6 [1] came out at 7.5 µM; in the test with IL-6 [2] (unit inferred, read-out: IC50 (TNF stimulation of IL6)), 8.7 µM. For the compound `CCN1CCCC1CNc1nc(Nc2ccc3ncccc3c2)nc(NC2CCCCCC2)n1` (centres unmarked) [Compound 4, N^2-cycloheptyl-N^4-[(1-ethyl-2-pyrrolidinyl)methyl]-N^6-(6-quinolinyl)-1,3,5-triazine-2,4,6-triamine], the activity at 10 µM with IL-6 [1] (setting [3]) amounted to 1%. The same measure, in the same setting: with `CCN1CCCC1CNc1nc(NC2CCCCCC2)nc(N(C)c2ccc(Cl)cc2)n1` (centres unmarked) [Compound 40, N^2-(4-chlorophenyl)-N^4-cycloheptyl-N^6-[(1-ethyl-2-pyrrolidinyl)methyl]-N^2-methyl-1,3,5-triazine-2,4,6-triamine] the figure was 19%. Take `CCN1CCCC1CNc1nc(Nc2cccc(NC(C)=O)c2)nc(NC2CCCCCC2)n1` (centres unmarked) [Compound 30, N-{3-[(4-(cycloheptylamino)-6-{[(1-ethyl-2-pyrrolidinyl)methyl]amino}-1,3,5-triazin-2-yl)-amino]phenyl}acetamide]: the values for the activity at 10 µM in the test with IL-6 [1] (setting [3]) and in the test on IL-6 [2] were 17% and 9%, respectively. For the compound `CCN1CCCC1CNc1nc(NC2CCCCCC2)nc(N(CC#N)c2ccccc2)n1` (centres unmarked) [Compound 44, [(4-(cycloheptylamino)-6-{[(1-ethyl-2-pyrrolidinyl)methyl]amino}-1,3,5-triazin-2-yl)(phenyl)amino]acetonitrile], the activity at 10 µM in the test with IL-6 [1] (setting [3]) amounted to 1%. Besides, the IC50 in the test on IL-6 [1] came to 7.1 µM. The corresponding values for `CCN1CCCC1CNc1nc(Nc2ccc(C#N)cc2)nc(NC2CCCCCC2)n1` (centres unmarked) [Compound 11, 4-[(4-(cycloheptylamino)-6-{[(1-ethyl-2-pyrrolidinyl)methyl]amino}-1,3,5-triazin-2-yl)-amino]benzonitrile] are 1% and 8.87 µM.

As to `CCN1CCCC1CNc1nc(Nc2ccc(NC(C)=O)cc2)nc(NC2CCCCCC2)n1` (centres unmarked) [Compound 29, N-{4-[(4-(cycloheptylamino)-6-{[(1-ethyl-2-pyrrolidinyl)methyl]amino}-1,3,5-triazin-2-yl)-amino]phenyl}acetamide], the activity at 10 µM in the test on IL-6 [1] (setting [3]) stood at 7%; with IL-6 [2], 13%. The corresponding values for `CCN1CCCC1CNc1nc(NC2CCCCCC2)nc(N(C)c2ccc(OC)cc2)n1` (centres unmarked) [Compound 42, N^2-cycloheptyl-N^4-[(1-ethyl-2-pyrrolidinyl)methyl]-N^6-(4-methoxyphenyl)-N^6-methyl-1,3,5-triazine-2,4,6-triamine] are 1% and 1%. The corresponding values for `CCN1CCCC1CNc1nc(Nc2ccc(OC)c(F)c2)nc(N2CCN(Cc3ccc4c(c3)OCO4)CC2)n1` (centres unmarked) [Compound 72, N^6-[4-(1,3-benzodioxol-5-ylmethyl)-1-piperazinyl]-N^2-[(1-ethyl-2-pyrrolidinyl)methyl]-N^4-(3-fluoro-4-methoxyphenyl)-1,3,5-triazine-2,4-diamine] are 31% and 5%. Turning to `CCN1CCCC1CNc1nc(NCCN2CCCCC2)nc(Nc2ccc(OC)c(F)c2)n1` (centres unmarked) [Compound 71, N^2-[(1-ethyl-2-pyrrolidinyl)methyl]-N^4-(3-fluoro-4-methoxyphenyl)-N^6-[2-(1-piperidinyl)ethyl]-1,3,5-triazine-2,4,6-triamine], the activity at 10 µM with IL-6 [1] (setting [3]) stood at 29%; in the test on IL-6 [2], 1%. On to `CCN1CCCC1CNc1nc(Nc2ccc3c(c2)OCCO3)nc(NC2CCCCCC2)n1` (centres unmarked) [Compound 24, N^2-cycloheptyl-N^4-(2,3-dihydro-1,4-benzodioxin-6-yl)-N^6-[(1-ethyl-2-pyrrolidinyl)methyl]-1,3,5-triazine-2,4,6-triamine], for which, in the test on IL-6 [1] (setting [3]), the activity at 10 µM stood at 1%.

On to `CCN1CCCC1CNc1nc(NCC(F)(F)F)nc(Nc2ccc(OC)c(F)c2)n1` (centres unmarked) [Compound 67, N^2-[(1-ethyl-2-pyrrolidinyl)methyl]-N^4-(3-fluoro-4-methoxyphenyl)-N^6-(2,2,2-trifluoroethyl)-1,3,5-triazine-2,4,6-triamine], for which, in the test on IL-6 [1] (setting [3]), the activity at 10 µM was 39%.

In the case of `CCN1CCCC1CNc1nc(NC2CCCCCC2)nc(N(C)c2ccc(F)cc2F)n1` (centres unmarked) [Compound 43, N^2-cycloheptyl-N^4-(2,4-difluorophenyl)-N^6-[(1-ethyl-2-pyrrolidinyl)methyl]-N^4-methyl-1,3,5-triazine-2,4,6-triamine], in the test with IL-6 [1] (setting [3]), the activity at 10 µM is 4%. As for `CCN1CCCC1CNc1nc(Nc2ccc(N(C)C)cc2)nc(NC2CCCCCC2)n1` (centres unmarked) [Compound 25, N^2-cycloheptyl-N^4-[4-(dimethylamino)phenyl]-N^6-[(1-ethyl-2-pyrrolidinyl)methyl]-1,3,5-triazine-2,4,6-triamine], in the test on IL-6 [1] (setting [3]), the activity at 10 µM was 1%. Take `CCN1CCCC1CNc1nc(Nc2ccc(F)cc2)nc(NC2CCCCCC2)n1` (centres unmarked) [Compound 10, N^2-cycloheptyl-N^4-[(1-ethyl-2-pyrrolidinyl)methyl]-N^6-(4-fluorophenyl)-1,3,5-triazine-2,4,6-triamine]: the activity at 10 µM in the test with IL-6 [1] (setting [3]) amounted to 1%. The same measure, in the same setting: with `CCN1CCCC1CNc1nc(NC2CCCCCC2)nc(N(C)c2cccc(Cl)c2)n1` (centres unmarked) [Compound 45, N^2-(3-chlorophenyl)-N^4-cycloheptyl-N^6-[(1-ethyl-2-pyrrolidinyl)methyl]-N^2-methyl-1,3,5-triazine-2,4,6-triamine] the figure was 1%. Turning to `CN1CCC(N(C)c2nc(Nc3ccc4ccccc4c3)nc(NC3CC3)n2)CC1` [Compound 180, N-Cyclopropyl-N′-methyl-N′-(1-methyl-piperidin-4-yl)-N″-naphthalen-2-yl-[1,3,5]triazine-2,4,6-triamine], in the test with IL-6 [1] (read-out: % IL6 production compare to AGE stimulation of IL6 (100%)), the activity at 10 µM was determined as 5%. Consider `CCN1CCCC1CNc1nc(NCCCN2CCCC2=O)nc(Nc2ccc(OC)c(F)c2)n1` (centres unmarked) [Compound 74, 1-[3-({4-{[(1-ethyl-2-pyrrolidinyl)methyl]amino}-6-[(3-fluoro-4-methoxyphenyl)amino]-1,3,5-triazin-2-yl}amino)propyl]-2-pyrrolidinone], for which the activity at 10 µM in the test with IL-6 [1] (setting [3]) is 49%. On the same count and under the same terms, with `CCN1CCCC1CNc1nc(Nc2scc(C)c2C(N)=O)nc(NC2CCCCCC2)n1` (centres unmarked) [Compound 39, 2-[(4-(cycloheptylamino)-6-{[(1-ethyl-2-pyrrolidinyl)methyl]amino}-1,3,5-triazin-2-yl)-amino]-4-methyl-3-thiophenecarboxamide] the figure was 28%; with `CCN1CCCC1CNc1nc(Nc2ccc(OC)c(F)c2)nc(N2CCN(C)CC2)n1` (centres unmarked) [Compound 62, N^2-[(1-ethyl-2-pyrrolidinyl)methyl]-N^4-(3-fluoro-4-methoxyphenyl)-6-(4-methyl-1-piperazinyl)-1,3,5-triazine-2,4-diamine], 42%; with `CCOc1ccc(Nc2nc(NCC3CCCN3CC)nc(NC3CCCCCC3)n2)cc1` (centres unmarked) [Compound 32, N^2-cycloheptyl-N^4-(4-ethoxyphenyl)-N^6-[(1-ethyl-2-pyrrolidinyl)methyl]-1,3,5-triazine-2,4,6-triamine], 1%.

For the compound `COc1ccc(Nc2nc(NCCCn3ccnc3)nc(NC3CCCCCC3)n2)cc1F` [Compound 100, N^2-cycloheptyl-N^4-(3-fluoro-4-methoxyphenyl)-N^6-[3-(1H-imidazol-1-yl)propyl]-1,3,5-triazine-2,4,6-triamine], the activity at 10 µM with IL-6 [1] (setting [3]) was found to be 1%.

With `CCN1CCCC1CNc1nc(NC2CCCCCC2)nc(N(C)c2ccccc2C(F)(F)F)n1` (centres unmarked) [Compound 46, N^2-cycloheptyl-N^4-[(1-ethyl-2-pyrrolidinyl)methyl]-N^6-methyl-N^6-[2-(trifluoromethyl)phenyl]-1,3,5-triazine-2,4,6-triamine], the activity at 10 µM with IL-6 [1] (setting [3]) amounted to 3%.

Turning to `CCOC(=O)N1CCN(c2nc(NCC3CCCN3CC)nc(Nc3ccc(OC)c(F)c3)n2)CC1` (centres unmarked) [Compound 64, Ethyl 4-{4-{[(1-ethyl-2-pyrrolidinyl)methyl]amino}-N^6-[(3-fluoro-4-methoxyphenyl)amino]-1,3,5-triazin-2-yl}-1-piperazinecarboxylate], the activity at 10 µM in the test on IL-6 [2] was determined as 23%. As for `CCN1CCCC1CNc1nc(NC2CCCCCC2)nc(N(CCC#N)c2ccccc2)n1` (centres unmarked) [Compound 41, 3-[(4-(cycloheptylamino)-6-{[(1-ethyl-2-pyrrolidinyl)methyl]amino}-1,3,5-triazin-2-yl)-(phenyl)amino]propanenitrile], in the test with IL-6 [1] (setting [3]), the activity at 10 µM worked out at 18%.

For orientation: IC50 means the concentration needed to halve the response being measured.
